Results taken from patent US20230321253A1, “BIFUNCTIONAL COMPOUNDS AND PHARMACEUTICAL USES THEREOF” (RISEN (SUZHOU) PHARMA TECH CO., LTD., priority 2022, published 2023).
pIC50: −log10 of the molar value.

Experiments:
Aspc-1 cells = experiment: Cell proliferation study in Aspc-1 cells (Cell Titer Glo); assay type: cell-based; conditions: Homo sapiens, ASPC1, 72 hours, read-out: IC50, inhibitory effect on cellular proliferation
Description: Aspc-1 (Cobioer, CBP60546) cells were grown in RPMI 1640 (Gibco, 61870127) supplemented with 10% fetal bovine serum (Gibco, 10099141), 1% penicillin-streptomycin (Gibco, 15070-063). Aspc-1 cells in exponential growth phase were seeded into 96-well plate (Corning, 3599) at density of 4×10^3/well. Cells were cultured overnight at 37° C. with 5% CO2. On the next day, cells were treated with test compound at various concentrations for 72 hours in 37° C., 5% CO2 incubator (final DMSO concentration was 0.1%). After treatment, 100 μL Cell Tier Glo (Promega, G7573) was added to every well of the cell plates and the plates were incubated at room temperature (RT) for 10 minutes. Cell growth status was measured with Cell Tier Glo (Promega, G7573) following the manufacturer's instructions. The inhibition curve was obtained with GraphPad 7.0 software using four-parameter equation.

KRAS-G12D protein = molecular target: T1, KRAS-G12D protein (Homo sapiens, UniProt P01116, G12D); experiment: KRAS-G12D protein degradation study in Aspc-1 cells (western blot); assay type: cell-based; conditions: for inhibition at 1 µM / inhibition at 0.1 µM / inhibition at 0.05 µM: ASPC1, 24 h; for inhibition at 1 µM: Aspc-1 cells treated with 1 μM compound; for inhibition at 1 µM / inhibition at 0.1 µM: read-out: Rate of protein degradation (KRAS^G12D); for DC50: Aspc-1 cells, read-out: DC50 of test compound-induced KRAS^G12D protein degradation; for inhibition at 0.05 µM: Aspc-1 cells treated with 50 nM compound, read-out: Rate of degradation (KRAS^G12D)
T1 construct: host or cells: Aspc-1 cells
Summary of the method: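 AsPC-1 cells were treated with compound for 24 h at 37° C (0.1% DMSO final), then lysed; KRAS levels measured by western blot. Degradation % = 1 − (KRAS/GAPDH, compound) ÷ (KRAS/GAPDH, DMSO), ×100; DC50 derived from concentration curves.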

[1] = Aspc-1 cells treated with 0.1 μM compound, 24 hours

T1 sequence (P01116 1-188 isoform P01116-2 G12D): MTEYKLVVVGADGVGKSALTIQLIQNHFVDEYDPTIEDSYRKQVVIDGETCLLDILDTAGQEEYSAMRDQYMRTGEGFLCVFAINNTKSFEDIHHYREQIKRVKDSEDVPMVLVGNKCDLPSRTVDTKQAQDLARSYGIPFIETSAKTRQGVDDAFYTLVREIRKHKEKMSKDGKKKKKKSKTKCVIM

Structure (SMILES)	pIC50 (Aspc-1 cells)	inhibition at 1 µM (KRAS-G12D protein; 24 hours)	inhibition at 0.05 µM (KRAS-G12D protein; 24 hours)	also measured
CCc1c(F)ccc2cc(O)cc(-c3ncc4c(N5CC6CCC(C5)N6)nc(OCCCN5CCN(C(=O)CCCCC(=O)N[C@H](C(=O)N6C[C@H](O)C[C@H]6C(=O)NCc6ccc(-c7scnc7C)cc6)C(C)(C)C)CC5)nc4c3F)c12 [Compound 26]	5.30 to 6.00			
C#Cc1c(F)ccc2cc(O)cc(-c3ncc4c(N5CC6CCC(C5)N6)nc(OCCCN5CCN(C(=O)CCCCC(=O)N[C@H](C(=O)N6C[C@H](O)C[C@H]6C(=O)NCc6ccc(-c7scnc7C)cc6)C(C)(C)C)CC5)nc4c3F)c12 [Compound 27]	6.00 to 7.00			
C#Cc1c(F)ccc2cc(O)cc(-c3ncc4c(N5CC6CCC(C5)N6)nc(OCCCN5CCN(CCCCCCC(=O)N[C@H](C(=O)N6C[C@H](O)C[C@H]6C(=O)NCc6ccc(-c7scnc7C)cc6)C(C)(C)C)CC5)nc4c3F)c12 [Compound 29]	5.30 to 6.00	31 to 60%		
C#Cc1c(F)ccc2cc(O)cc(-c3ncc4c(N5CC6CCC(C5)N6)nc(OCCCN5CCN(CCCCCCCC(=O)N[C@H](C(=O)N6C[C@H](O)C[C@H]6C(=O)NCc6ccc(-c7scnc7C)cc6)C(C)(C)C)CC5)nc4c3F)c12 [Compound 31]	5.30 to 6.00	> 60%		
C#Cc1c(F)ccc2cc(O)cc(-c3ncc4c(N5CC6CCC(C5)N6)nc(OCCN5CCN(CCCCCCCC(=O)N[C@H](C(=O)N6C[C@H](O)C[C@H]6C(=O)NCc6ccc(-c7scnc7C)cc6)C(C)(C)C)CC5)nc4c3F)c12 [Compound 32]	5.30 to 6.00	11 to 30%		
C#Cc1c(F)ccc2cc(O)cc(-c3ncc4c(N5CC6CCC(C5)N6)nc(OCCCN5CCN(C(=O)CN6CCC(c7ccc8c(C9CCC(=O)NC9=O)nn(C)c8c7)CC6)CC5)nc4c3F)c12 (centres unmarked) [Compound 33]	6.00 to 7.00	> 60%		inhibition at 0.1 µM (KRAS-G12D protein; [1]): 31 to 60%
CCc1c(F)ccc2cc(O)cc(-c3ncc4c(N5CC6CCC(C5)N6)nc(OC[C@@H]5CCCN5C(=O)CCCCCCCC(=O)N[C@H](C(=O)N5C[C@H](O)C[C@H]5C(=O)NCc5ccc(-c6scnc6C)cc5)C(C)(C)C)nc4c3F)c12 [Compound 35]	5.30 to 6.00	31 to 60%		
C#Cc1c(F)ccc2cc(O)cc(-c3ncc4c(N5CC6CCC(C5)N6)nc(OC5CCN(CCCCCCCC(=O)N[C@H](C(=O)N6C[C@H](O)C[C@H]6C(=O)NCc6ccc(-c7scnc7C)cc6)C(C)(C)C)CC5)nc4c3F)c12 [Compound 39]	5.00 to 5.30			
C#Cc1c(F)ccc2cc(O)cc(-c3ncc4c(N5CC6CCC(C5)N6)nc(OC5CCN(CCCCCCCCCC(=O)N[C@H](C(=O)N6C[C@H](O)C[C@H]6C(=O)NCc6ccc(-c7scnc7C)cc6)C(C)(C)C)CC5)nc4c3F)c12 [Compound 41]	6.00 to 7.00	> 60%		
CCc1c(F)ccc2cc(O)cc(-c3ncc4c(N5CC6CCC(C5)N6)nc(OC5CCN(CCCCCCCCCC(=O)N[C@H](C(=O)N6C[C@H](O)C[C@H]6C(=O)NCc6ccc(-c7scnc7C)cc6)C(C)(C)C)CC5)nc4c3F)c12 [Compound 42]	5.30 to 6.00			
C#Cc1c(F)ccc2cc(O)cc(-c3ncc4c(N5CC6CCC(C5)N6)nc(OC5CCN(CCCCCCCCCCC(=O)N[C@H](C(=O)N6C[C@H](O)C[C@H]6C(=O)NCc6ccc(-c7scnc7C)cc6)C(C)(C)C)CC5)nc4c3F)c12 [Compound 43]	6.00 to 7.00	> 60%		
CCc1c(F)ccc2cc(O)cc(-c3ncc4c(N5CC6CCC(C5)N6)nc(OC5CCN(CCCCCCCCCCC(=O)N[C@H](C(=O)N6C[C@H](O)C[C@H]6C(=O)NCc6ccc(-c7scnc7C)cc6)C(C)(C)C)CC5)nc4c3F)c12 [Compound 44]	5.30 to 6.00	31 to 60%		
C#Cc1c(F)ccc2cc(O)cc(-c3ncc4c(N5CC6CCC(C5)N6)nc(OC5CCN(CCCCCCCCCCC(=O)N[C@H](C(=O)N6C[C@H](O)C[C@H]6C(=O)N[C@@H](C)c6ccc(-c7scnc7C)cc6)C(C)(C)C)CC5)nc4c3F)c12 [Compound 45]	6.00 to 7.00	> 60%		inhibition at 0.1 µM (KRAS-G12D protein; [1]): 31 to 60%
C#Cc1c(F)ccc2cc(O)cc(-c3ncc4c(N5CC6CCC(C5)N6)nc(OC5CCN(CCCCCCCCCCCC(=O)N[C@H](C(=O)N6C[C@H](O)C[C@H]6C(=O)NCc6ccc(-c7scnc7C)cc6)C(C)(C)C)CC5)nc4c3F)c12 [Compound 46]	6.00 to 7.00	> 60%		
C#Cc1c(F)ccc2cc(O)cc(-c3ncc4c(N5CC6CCC(C5)N6)nc(OC5CCN(CCCCCCCCCCCCCC(=O)N[C@H](C(=O)N6C[C@H](O)C[C@H]6C(=O)NCc6ccc(-c7scnc7C)cc6)C(C)(C)C)CC5)nc4c3F)c12 [Compound 47]	5.30 to 6.00	31 to 60%		
C#Cc1c(F)ccc2cc(O)cc(-c3ncc4c(N5CC6CCC(C5)N6)nc(OC5CCCN(CCCCCCCCCCC(=O)N[C@H](C(=O)N6C[C@H](O)C[C@H]6C(=O)N[C@@H](C)c6ccc(-c7scnc7C)cc6)C(C)(C)C)C5)nc4c3F)c12 (some centres unmarked) [Compound 48]	5.30 to 6.00			
C#Cc1c(F)ccc2cc(O)cc(-c3ncc4c(N5CC6CCC(C5)N6)nc(OC5CCCN(CCCCCCCCCCC(=O)N6CCC(c7ccc8c(C9CCC(=O)NC9=O)nn(C)c8c7)CC6)C5)nc4c3F)c12 (centres unmarked) [Compound 49]	5.30 to 6.00			
C#Cc1c(F)ccc2cc(O)cc(-c3ncc4c(N5CC6CCC(C5)N6)nc(OC5CCN(CCCCCCCCCC(=O)N6CCC(c7ccc8c(C9CCC(=O)NC9=O)nn(C)c8c7)CC6)CC5)nc4c3F)c12 (centres unmarked) [Compound 50]	5.30 to 6.00	11 to 30%		
C#Cc1c(F)ccc2cc(O)cc(-c3ncc4c(N5CC6CCC(C5)N6)nc(OC5CCN(CC(=O)N6CCC7(CC6)CC(N6CCC(c8ccc9c(C%10CCC(=O)NC%10=O)nn(C)c9c8)CC6)C7)CC5)nc4c3F)c12 (centres unmarked) [Compound 82]	5.30 to 6.00			inhibition at 0.1 µM (KRAS-G12D protein; [1]): > 60%; DC50 (KRAS-G12D protein): < 10 nM
C#Cc1c(F)ccc2cc(O)cc(-c3ncc4c(N5CC6CCC(C5)N6)nc(OCC5(CN6CCN(C(=O)CN7CCC(c8ccc9c(C%10CCC(=O)NC%10=O)nn(C)c9c8)CC7)CC6)CC5)nc4c3F)c12 (centres unmarked) [Compound 92]	> 7.00			Rate of protein degradation (KRAS^G12D) (KRAS-G12D protein; [1]): +++ (greater than 60%); DC50 (KRAS-G12D protein): < 10 nM
C#Cc1c(F)ccc2cc(O)cc(-c3ncc4c(N5CC6CCC(C5)N6)nc(OCC5(CN6CCC(C(=O)Nc7ccc8c(C9CCC(=O)NC9=O)nn(C)c8c7)CC6)CC5)nc4c3F)c12 (centres unmarked) [Compound 159]			31 to 60%	
C#Cc1c(F)ccc2cc(O)cc(-c3ncc4c(N5CC6CCC(C5)N6)nc(OCC5(CN6CCC7(CC6)CC(N6CC=C(c8cccc9c8n(C)c(=O)n9C8CCC(=O)NC8=O)CC6)C7)CC5)nc4c3F)c12 (centres unmarked) [Compound 161]			31 to 60%	
C#Cc1c(F)ccc2cc(O)cc(-c3ncc4c(N5CC6CCC(C5)N6)nc(OCC5(CN6CCC7(CC6)CC(N6CCC(c8cccc(C9CCC(=O)NC9=O)c8)CC6)C7)CC5)nc4c3F)c12 (centres unmarked) [Compound 162]			≤ 10%	
C#Cc1c(F)ccc2cc(O)cc(-c3ncc4c(N5CC6CCC(C5)N6)nc(OCC5(CN6CCC7(CC6)CC(Nc6cccc8c(C9CCC(=O)NC9=O)n[nH]c68)C7)CC5)nc4c3F)c12 (centres unmarked) [Compound 163]			31 to 60%	
C#Cc1c(F)ccc2cc(O)cc(-c3ncc4c(N5CC6CCC(C5)N6)nc(OCC5(CN6CCC(CNc7cccc8c(C9CCC(=O)NC9=O)nn(C)c78)CC6)CC5)nc4c3F)c12 (centres unmarked) [Compound 165]			31 to 60%	
C#Cc1c(F)ccc2cc(O)cc(-c3ncc4c(N5CC6CCC(C5)N6)nc(OCC5(CN6CCC7(CC6)CC(N6CCC(c8ccc(C9CCC(=O)NC9=O)cc8)CC6)C7)CC5)nc4c3F)c12 (centres unmarked) [Compound 166]			> 60%	
C#Cc1c(F)ccc2cc(O)cc(-c3ncc4c(N5CC6CCC(C5)N6)nc(OCC5(CN6CCC7(CC6)CC(Nc6ccc8c(C9CCC(=O)NC9=O)nn(C)c8c6)C7)CC5)nc4c3F)c12 (centres unmarked) [Compound 167]			> 60%	
C#Cc1c(F)ccc2cc(O)cc(-c3ncc4c(N5CC6CCC(C5)N6)nc(OCC5(CN6CCC7(CC6)CC(N6CCC(c8ccc9c(c8)C(=O)N(C8CCC(=O)NC8=O)C9=O)CC6)C7)CC5)nc4c3F)c12 (centres unmarked) [Compound 170]			31 to 60%	
C#Cc1c(F)ccc2cc(O)cc(-c3ncc4c(N5CC6CCC(C5)N6)nc(OCC5(CN6CCC7(CC6)CC(N6CCC(c8cccc9c8C(=O)N(C8CCC(=O)NC8=O)C9=O)CC6)C7)CC5)nc4c3F)c12 (centres unmarked) [Compound 171]			≤ 10%	
